Test [1] concerns vascular endothelial cells. To be noted: cited from earlier work.
Test [2] has as its system normal human umbilical cord vein vascular endothelial cells and normal human skin fibroblasts. Briefly: Measurement of angiogenesis acceleration action (in vitro), hollow organ formation, Example 1. It counts as cell-based. The conditions noted are these: 10 ng/ml; 10 days of culturing; FIG. 1. On the procedure:
An angiogenesis kit (manufactured by Kurabo; constituted from normal human umbilical cord vein vascular endothelial cells and normal human skin fibroblasts) was cultured for 3 hours, and then the culture medium (the medium for angiogenesis use attached to the angiogenesis kit was used as the culture medium and cultured at 37° C. under a moist environment of 5% carbon dioxide-95% air, and a carbon dioxide incubator BNA-121D was used as the incubator) was changed and an agent to be tested was added to each well (0.5 ml/well). The medium exchange was carried out also on the 3rd, 6th and 8th days after commencement of the culturing and the fresh agent to be tested was added. The kind and concentration of the agent to be tested were untreated, solvent (DMSO) 0.1%, Compound 1 10^−9, 10^−8 and 10^−7 mol/l, VEGF-A 0.1, 1 and 10 ng/ml and HGF 0.1, 1 and 10 ng/ml, and the culturing was carried out by using 3 wells for each concentration. Fixation was carried out 10 days after the commencement of culturing, and staining of hollow organ with anti-CD31 antibody was carried out by using a hollow organ staining kit (manufactured by Kurabo). As the evaluation, Chalkley Grid (a grid lens, manufactured by Kurabo) was mounted on the eyepiece of a microscope, and the hollow organ formation was evaluated by counting intersections of the randomly arrange points of Chalkley Grid with the formed hollow organ (by referring to the evaluation method of J. Pathol., 177, 275-283 (1995)). The counting was carried out at 12 positions per well, and the total was calculated.
As the agent to be tested, Compound 1 ((E)-[5-[2-[1-phenyl-1-(3-pyridyl)methylideneaminoxy]ethyl]-7,8-dihydronaphthalen-1-yloxy]acetic acid) was dissolved in dimethyl sulfoxide (DMSO) to prepare 10^−4, 10^−5 and 10^−6 mol/l solutions which were then used by diluting 1/1000 time with the culture medium.
As the VEGF-A (vascular endothelial growth factor-A), the 2 μg/ml solution of VEGF contained in the angiogenesis control reagent kit of Kurabo was diluted with the culture medium and used. […]

The test system is the same in test [3]. Briefly: Measurement of angiogenesis acceleration action (in vitro), hollow organ formation, Example 9. It counts as cell-based. To be noted: 10 ng/ml; 10 days of culturing; FIG. 5. On the procedure: An angiogenesis kit (manufactured by Kurabo; constituted from normal human umbilical cord vein vascular endothelial cells and normal human skin fibroblasts) was cultured for 3 hours, and then the culture medium (the medium for angiogenesis use attached to the angiogenesis kit was used as the culture medium and cultured at 37° C. under a moist environment of 5% carbon dioxide-95% air, and a carbon dioxide incubator BNA-121D was used as the incubator) was changed and an agent to be tested was added to each well (0.5 ml/well). The medium exchange was carried out also on the 3rd, 6th and 8th days after commencement of the culturing and the fresh agent to be tested was added. The kind and concentration of the agent to be tested were untreated; DMSO: 0.1%; α-CD: 0.0118, 0.118 and 1.18 mg/ml; PGE2-αCD: 1, 10 and 100 nmol/l; Compound 3 (EP2 agonist), Compound 4 (EP4 agonist), EP1 agonist and EP3 agonist: 1, 10 and 100 nmol/l, VEGF: 0.1, 1 and 10 ng/ml; and HGF: 0.1, 1 and 10 ng/ml, and culturing was carried out by using 3 wells for each concentration. Fixation was carried out 10 days after the commencement of culturing, and staining of hollow organ with anti-CD31 antibody was carried out by using a hollow organ staining kit (manufactured by Kurabo). As the evaluation, Chalkley Grid (a grid lens, Kurabo) was mounted on the eyepiece of a microscope, and the hollow organ formation was evaluated by counting intersections of the randomly arrange points of Chalkley Grid with the formed hollow organ (by referring to the evaluation method of J. Pathol., 177, 275-283 (1995)). The counting was carried out at 12 positions per well, and the total was calculated.
In this connection, Compound 3 as an EP2 agonist ((5Z,9β,11α,13E)-17,17-propano-11,16-dihydroxy-9-chloro-20-norprost-5,13-dienoic acid) was dissolved in dimethyl sulfoxide (DMSO) to prepare 10^−4, 10^−5 and 10^−6 mol/l solutions which were then used by diluting 1/1000 time with the culture medium.
Compound 4 as an EP4 agonist ((11α,13E,15α)-9-oxo-11,15-dihydroxy-16-(3-methoxymethylphenyl)-17,18,19,20-tetranor-5-thiaprost-13-enoic acid) was dissolved in dimethyl sulfoxide (DMSO) to prepare 10^−4, 10^−5 and 10^−6 mol/l solutions which were then used by diluting 1/1000 time with the culture medium.
The EP1 agonist ((13E)-(11α,15S,17S)-2,5-ethano-6,9-dioxo-11,15-dihydroxy-17,20-dimethylprost-13-enoic acid; the compound described in Example 1 in the specification of JP-A-11-322709) was dissolved in dimethyl sulfoxide (DMSO) to prepare 10^−4, 10^−5 and 10^−6 mol/l solutions which were then used by diluting 1/1000 time with the culture medium.
The EP3 agonist (11α,15α-dimethoxy-9-oxoprost-5Z,13E-dienoic acid; the compound described in Example 1 in the specification of WO98/34916) was dissolved in dimethyl sulfoxide (DMSO) to prepare 10^−4, 10^−5 and 10^−6 mol/l solutions which were then used by diluting 1/1000 time with the culture medium.
The PGE2-αCD was dissolved in distilled water for injection to prepare 10^−4, 10^−5 and 10^−6 mol/l solutions which were then used by diluting 1/1000 time with the culture medium.
As the VEGF (vascular endothelial growth factor), the 2 μg/ml solution of VEGF contained in the angiogenesis control reagent kit of Kurabo was diluted with the culture medium and used.
As the HGF (human hepatocyte growth factor), the 5 μg/ml solution of HGF purchased from R & D System-Funakoshi was diluted with the culture medium and used.
The counts of hollow organ formation in the untreated wells were compared with those of the wells treated with respective concentrations of test samples by Dunnett's test (two-sided test). The significance level was set to 5%.
In this connection, the data were shown by average value of 3 wells and standard deviation.

Structures can show the parent of a compound that is named as a salt.

With `CC#CCC(C)[C@H](O)/C=C/[C@@H]1[C@H]2c3cccc(CCCC(=O)O)c3O[C@H]2C[C@H]1O` (mixture of isomers) [Beraprost, (±)-(1R,2R,3aS,8bS)-2,3,3a,8b-terahydro-2-hydroxy-1-[(E)-(3S,4RS)-3-hydroxy-4-methyl-1-octen-6-ynyl]-1H-cyclopenta[b]benzofuran-5-butanoic acid sodium salt], in test [1] (in vitro), the “endothelial cell growth action, in words” value is on record as “shows endothelial cell growth action”. Besides, in test [1] (vascular endothelial cells in vitro), the “HGF production, in words” value is “increases HGF production in vascular endothelial cells in vitro”.

With “HGF: human hepatocyte growth factor purchased from R & D System-Funakoshi; positive control agent”, the “hollow organ formation (Chalkley Grid count), in words” value in test [2] and in test [3] was “accelerated hollow organ formation” in each case.

The record behind these values is US8642630B2, “Endogeneous repair factor production accelerators” (Ono Pharmaceutical Co., Ltd., priority 2002, dated 2014).
